Experimental data: PubChem BioAssay (NCI)
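Cultured in 96-well plates, cells were exposed to test compound for 48 hours across five concentrations. The concentration for full growth arrest is given as TGI.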

Columns and labels:
Assay in all cases: inhibition of tumour cell growth, NCI panel, 48 h
786-0 renal = tested on: 786-0 renal
SNB-19 CNS = tested on: SNB-19 CNS
SK-OV-3 ovarian = tested on: SK-OV-3 ovarian
CCRF-CEM leukemia = tested on: CCRF-CEM leukemia
M14 melanoma = tested on: M14 melanoma
RXF 393 renal = tested on: RXF 393 renal
SF-268 CNS = tested on: SF-268 CNS
SW-620 colon = tested on: SW-620 colon
TK-10 renal = tested on: TK-10 renal
MDA-N = tested on: MDA-N
MOLT-4 leukemia = tested on: MOLT-4 leukemia
NCI-H23 lung = tested on: NCI-H23 lung
IGROV1 ovarian = tested on: IGROV1 ovarian
K-562 leukemia = tested on: K-562 leukemia
T-47D breast = tested on: T-47D breast
UO-31 renal = tested on: UO-31 renal
SNB-75 CNS = tested on: SNB-75 CNS
MDA-MB-435 = tested on: MDA-MB-435
UACC-257 melanoma = tested on: UACC-257 melanoma
MALME-3M melanoma = tested on: MALME-3M melanoma
OVCAR-3 ovarian = tested on: OVCAR-3 ovarian
SK-MEL-2 melanoma = tested on: SK-MEL-2 melanoma
MCF7 breast = tested on: MCF7 breast
NCI/ADR-RES ovarian = tested on: NCI/ADR-RES ovarian
EKVX NSCLC = tested on: EKVX NSCLC
CAKI-1 renal = tested on: CAKI-1 renal
OVCAR-4 ovarian = tested on: OVCAR-4 ovarian
ACHN renal = tested on: ACHN renal
OVCAR-8 ovarian = tested on: OVCAR-8 ovarian
PC-3 prostate = tested on: PC-3 prostate
NCI-H460 lung = tested on: NCI-H460 lung
SR leukemia = tested on: SR leukemia
HCT-116 colon = tested on: HCT-116 colon
U251 CNS = tested on: U251 CNS
DU-145 prostate = tested on: DU-145 prostate
SK-MEL-28 melanoma = tested on: SK-MEL-28 melanoma
HOP-62 NSCLC = tested on: HOP-62 NSCLC
HCC-2998 colon = tested on: HCC-2998 colon
HS 578T breast = tested on: HS 578T breast
KM12 colon = tested on: KM12 colon
SK-MEL-5 melanoma = tested on: SK-MEL-5 melanoma
SN12C renal = tested on: SN12C renal
UACC-62 melanoma = tested on: UACC-62 melanoma
BT-549 breast = tested on: BT-549 breast
RPMI-8226 leukemia = tested on: RPMI-8226 leukemia
SF-539 CNS = tested on: SF-539 CNS
COLO 205 colon = tested on: COLO 205 colon
OVCAR-5 ovarian = tested on: OVCAR-5 ovarian
LOX IMVI melanoma = tested on: LOX IMVI melanoma
MDA-MB-231 breast = tested on: MDA-MB-231 breast
NCI-H226 lung = tested on: NCI-H226 lung
A549 NSCLC = tested on: A549 NSCLC
HT29 colon = tested on: HT29 colon
NCI-H522 lung = tested on: NCI-H522 lung
HCT-15 colon = tested on: HCT-15 colon
SF-295 CNS = tested on: SF-295 CNS
HOP-92 NSCLC = tested on: HOP-92 NSCLC

`CC1=C(C(=O)OC(C)C)C(c2cccc([N+](=O)[O-])c2)C(C(=O)OC(CO[N+](=O)[O-])CO[N+](=O)[O-])=C(C)N1` (configuration not stated) gave a TGI (786-0 renal) of over 100 µM, a TGI (SNB-19 CNS) of 24.6 µM and a TGI (SK-OV-3 ovarian) of over 100 µM. For the same compound, the TGI (CCRF-CEM leukemia) was over 20.1 µM, the TGI (M14 melanoma) was 12.7 µM and the TGI (RXF 393 renal) was 58.1 µM. For the same compound, the TGI (SF-268 CNS) was 22.7 µM, the TGI (SW-620 colon) was over 100 µM and the TGI (TK-10 renal) was over 100 µM. The TGI (MDA-N) was 8.71 µM, the TGI (MOLT-4 leukemia) was 3.76 µM and the TGI (NCI-H23 lung) was over 100 µM. It also gave a TGI (IGROV1 ovarian) of over 87.6 µM, a TGI (K-562 leukemia) of over 100 µM and a TGI (T-47D breast) of over 100 µM. It also gave a TGI (UO-31 renal) of over 50.1 µM, a TGI (SNB-75 CNS) of 43.3 µM and a TGI (MDA-MB-435) of 15.3 µM. The TGI (UACC-257 melanoma) was 13.3 µM, the TGI (MALME-3M melanoma) was over 100 µM and the TGI (OVCAR-3 ovarian) was over 22.1 µM. For the same compound, the TGI (SK-MEL-2 melanoma) was 5.61 µM, the TGI (MCF7 breast) was 1.12 µM and the TGI (NCI/ADR-RES ovarian) was over 25.2 µM. For the same compound, the TGI (EKVX NSCLC) was over 27.7 µM, the TGI (CAKI-1 renal) was over 100 µM and the TGI (OVCAR-4 ovarian) was 20.9 µM. It also gave a TGI (ACHN renal) of over 100 µM, a TGI (OVCAR-8 ovarian) of over 100 µM and a TGI (PC-3 prostate) of over 32.6 µM. It also gave a TGI (NCI-H460 lung) of over 36.7 µM, a TGI (SR leukemia) of 15.6 µM and a TGI (HCT-116 colon) of 9.36 µM. The TGI (U251 CNS) was 6.97 µM, the TGI (DU-145 prostate) was over 100 µM and the TGI (SK-MEL-28 melanoma) was 33.7 µM. The TGI (HOP-62 NSCLC) was 16.5 µM, the TGI (HCC-2998 colon) was 18.3 µM and the TGI (HS 578T breast) was over 41.9 µM. The TGI (KM12 colon) was 12.9 µM, the TGI (SK-MEL-5 melanoma) was 4.13 µM and the TGI (SN12C renal) was over 34 µM. It also gave a TGI (UACC-62 melanoma) of 9.58 µM, a TGI (BT-549 breast) of 14.7 µM and a TGI (RPMI-8226 leukemia) of 3.6 µM. For the same compound, the TGI (SF-539 CNS) was 16.3 µM, the TGI (COLO 205 colon) was 8.39 µM and the TGI (OVCAR-5 ovarian) was 21.5 µM. The TGI (LOX IMVI melanoma) was 11 µM, the TGI (MDA-MB-231 breast) was over 20.7 µM and the TGI (NCI-H226 lung) was 30.6 µM. The TGI (A549 NSCLC) was over 100 µM, the TGI (HT29 colon) was 21 µM and the TGI (NCI-H522 lung) was 6.77 µM. The TGI (HCT-15 colon) was 19 µM, the TGI (SF-295 CNS) was 0.991 µM and the TGI (HOP-92 NSCLC) was 7.38 µM.
